# Legend:
# in vitro = conditions: isolated enzyme neprilysin, pH 8, % remaining analogue
# Method: (§1) Stock solutions of the oligomers were prepared at a concentration of 400 µM in a solution of 50 mM HEPES buffer, 50 mM NaCl, 0.05% Tween-80, pH 8.0. Stock solution of NEP 24.11 was prepared at a concentration of 100 µg mL^−1 in water. Stability of oligomers to NEP 24.11 was assessed by conducting protease reaction in a 96-well plates at 20 °C. […] Each compound was also incubated in the absence of the enzyme (12 µL of HEPES buffer and 38 µL of oligomer). […] A portion of the quenched reaction solution was analysed by HPLC. The time course of peptide degradation was determined by integrating the area of each peak in a series of HPLC traces.
# NEP 24.11 = NEP 24.11 (Homo sapiens, UniProt P08473); assay: in vitro; conditions: pH 8
# Sequence of NEP 24.11 (P08473 whole entry): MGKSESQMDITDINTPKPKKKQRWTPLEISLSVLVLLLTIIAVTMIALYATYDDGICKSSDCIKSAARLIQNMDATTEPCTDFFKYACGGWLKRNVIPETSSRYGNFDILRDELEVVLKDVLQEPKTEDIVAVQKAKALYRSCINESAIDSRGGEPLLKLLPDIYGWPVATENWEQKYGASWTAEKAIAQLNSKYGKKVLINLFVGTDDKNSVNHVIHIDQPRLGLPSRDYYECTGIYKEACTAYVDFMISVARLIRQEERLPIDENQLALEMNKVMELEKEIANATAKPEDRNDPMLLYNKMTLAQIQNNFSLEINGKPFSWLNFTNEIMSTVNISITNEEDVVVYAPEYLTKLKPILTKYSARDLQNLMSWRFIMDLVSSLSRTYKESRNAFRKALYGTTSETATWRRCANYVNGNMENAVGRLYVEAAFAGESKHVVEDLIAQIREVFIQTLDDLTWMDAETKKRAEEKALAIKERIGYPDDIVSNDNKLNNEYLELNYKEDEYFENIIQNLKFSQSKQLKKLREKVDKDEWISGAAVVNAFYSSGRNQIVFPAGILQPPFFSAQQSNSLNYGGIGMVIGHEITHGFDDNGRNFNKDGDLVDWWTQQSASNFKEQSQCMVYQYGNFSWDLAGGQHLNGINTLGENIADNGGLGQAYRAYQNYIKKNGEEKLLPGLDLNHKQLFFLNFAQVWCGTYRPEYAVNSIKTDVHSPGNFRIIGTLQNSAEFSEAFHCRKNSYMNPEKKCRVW
# Method: as §1
# normal mice (C57BL/6J) = assay: Blood glucose study in normal fed mice; assay type: in vivo, mouse; design: key to In vivo activity (indicator): + active; +++: + + + more active
# Method in brief: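 Fed male C57BL/6J mice (8 weeks, 20–25 g, n = 3 per group) received a single i.v. dose of 5 µg per mouse (50 nmol kg^−1) in PBS at 10 am. Blood glucose measured before dosing and at 30 min, 1, 2, 4 and 6 h after.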
# [1] = system: fasted normal mice (C57BL/6J); assay: Intraperitoneal glucose tolerance test (IPGTT) in fasted normal mice; assay type: in vivo, mouse; conditions: for AUC: IPGTT 5 min (Fig 4a), blood glucose AUC 0-120 min
# Method: In a second study, an IPGTT was performed 30 min after i.v. injections of 1, 14 and the vehicle (Fig. 4b). […] A further IPGTT study was done with a glucose challenge after 2 h of the dosing to investigate the prolonged activity of hybrids 14, 22 and 23 (Fig. 4c).
# Fig. 4 IPGTT studies in mice. a–d Intraperitoneal glucose tolerance test (IPGTT) at different time after dosing in fasted normal mice (C57BL/6J, male, 20–25 g). Dosage: 200 μg kg^−1 (50 nmol kg^−1) i.v. Formulation: 20 μg mL^−1 in PBS 1×. IPGTT: glucose 2 g kg^−1 i.p. at T0. a IPGTT after 5 min (n = 4). b IPGTT after 30 min (n = 6). c IPGTT after 2 h (n = 6). d IPGTT after 4 h (n = 3). Area under the curve (AUC) of the corresponding IPGTT curve. Data are mean ± SEM. […] Source data are provided as a Source Data file
# After the acclimation period (at least 5 days), mice (male C57BL/6J mice (Charles River laboratories) 6 weeks old, 20–25 g) were randomized into groups according to their body weight. The mice were fasted for 6 h prior being acutely treated via i.v. route (5 µg per mouse i.v. (200 μg kg^−1, 50 nmol kg^−1)) formulated at 20 µg mL^−1 in PBS 1×. The IPGTTs were performed (glucose 2 g kg^−1 i.p.) 5 min, 30 min, 2 h or 4 h after dosing and blood glucose was measured at different time points after the glucose challenge.
# [2] = Pharmacokinetic evaluation in mice, i.v. (final study, Fig. 5); conditions: C57BL/6J mice, LC-MS/MS
# Method: Data are mean ± SEM, n = 3. Source data are provided as a Source Data file
# After different time points, mice were sacrificed and blood samples were collected. The plasma was separated by centrifugation and the samples were frozen at −80 °C before analysis. A volume of 400 µL of each sample of plasma was mixed with 1 ml of acetonitrile to precipitate the protein and extract the compound. The sample were then vortexed and centrifuged (15,000 × g, 5 min, 16 °C) to sediment the precipitated protein.
# mouse GLP-1 receptor [3] = target: T1, mouse GLP-1 receptor (Mus musculus, UniProt O35659)
# T1 sequence (O35659 22-463): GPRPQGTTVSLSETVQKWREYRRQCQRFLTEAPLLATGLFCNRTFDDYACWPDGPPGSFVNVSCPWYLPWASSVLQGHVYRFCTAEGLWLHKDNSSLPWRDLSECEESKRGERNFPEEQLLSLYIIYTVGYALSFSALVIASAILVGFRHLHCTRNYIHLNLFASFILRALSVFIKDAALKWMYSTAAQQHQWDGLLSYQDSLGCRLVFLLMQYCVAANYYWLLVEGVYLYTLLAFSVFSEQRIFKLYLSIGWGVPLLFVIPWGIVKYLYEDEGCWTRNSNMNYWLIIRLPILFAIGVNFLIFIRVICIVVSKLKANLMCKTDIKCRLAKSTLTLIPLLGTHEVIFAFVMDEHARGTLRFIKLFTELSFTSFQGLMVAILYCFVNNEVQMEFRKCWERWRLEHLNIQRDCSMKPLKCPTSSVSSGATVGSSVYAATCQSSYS
# mouse GLP-1 receptor [4] = target: T1, mouse GLP-1 receptor; assay: cell-based
# [5] = fasted C57BL/6J mice, 200 μg kg−1 (50 nmol kg−1) i.v., glucose 2 g kg−1 i.p., n = 6
# [6] = male, C57BL/6J, mouse, in vivo, iv, 1 mg/kg, Concentration (plasma), animal 1
# [7] = male, C57BL/6J, mouse, in vivo, iv, 1 mg/kg, Concentration (plasma), animal 2
# [8] = male, C57BL/6J, mouse, in vivo, iv, 1 mg/kg, Concentration (plasma), animal 3
smiles,measurement,setting,value
"CC[C@H](C)[C@H](NC(=O)[C@H](Cc1ccccc1)NC(=O)[C@H](CCC(=O)O)NC(=O)[C@H](CCCCN)NC(=O)[C@H](C)NC(=O)[C@H](C)NC(=O)[C@H](CCC(N)=O)NC(=O)CNC(=O)[C@H](CCC(=O)O)NC(=O)[C@H](CC(C)C)NC(=O)[C@H](Cc1ccc(O)cc1)NC(=O)[C@H](CO)NC(=O)[C@H](CO)NC(=O)[C@@H](NC(=O)[C@H](CC(=O)O)NC(=O)[C@H](CO)NC(=O)[C@@H](NC(=O)[C@H](Cc1ccccc1)NC(=O)[C@@H](NC(=O)CNC(=O)[C@H](CCC(=O)O)NC(=O)CNC(=O)[C@@H](N)Cc1c[nH]cn1)[C@@H](C)O)[C@@H](C)O)C(C)C)C(=O)N[C@@H](C)C(=O)N[C@@H](Cc1c[nH]c2ccccc12)C(=O)N[C@@H](CC(C)C)C(=O)N[C@H](C(=O)N[C@@H](CCCCN)C(=O)NCC(=O)N[C@@H](CCCNC(=N)N)C(=O)NCC(N)=O)C(C)C [compound 1, GLP-1-G^2 (GG2)]",remaining at 1 h,in vitro,77.5%
same,remaining at 2 h,in vitro,63.1%
same,remaining at 4 h,in vitro,47.1%
same,remaining at 6 h,in vitro,32.6%
same,% remaining analogue,"NEP 24.11; isolated enzyme neprilysin, 22 h",0.6%
same,NEP 24.11 t1/2,NEP 24.11,3.6 h
same,In vivo activity (indicator),"normal mice (C57BL/6J); mice, 50 nmol kg−1 i.v.",+
same,effect on blood glucose concentration,"normal mice (C57BL/6J); normal fed C57BL/6J mice, n = 3, 5 μg per mouse (50 nmol kg−1) i.v., monitored 6 h",decreased of blood glucose concentration after 30 min
same,AUC,"[1]; mean of n = 4, 2018-03-08",21223 mg·min/dL
same,AUC,"[1]; single animal, 1st of group",20535 mg·min/dL
same,AUC,"[1]; single animal, 2nd of group",25208 mg·min/dL
same,AUC,"[1]; single animal, 3rd of group",19110 mg·min/dL
same,AUC,"[1]; single animal, 4th of group",20040 mg·min/dL
same,activity in IPGTT 5 min after dosing,"[1]; fasted C57BL/6J mice, 200 μg kg−1 (50 nmol kg−1) i.v., glucose 2 g kg−1 i.p., n = 4",both analogues were active
same,activity in IPGTT 30 min after dosing,[1]; [5],already inactive
same,activity in IPGTT 2 h after dosing,[1]; [5],IPGTT curve similar to the vehicle
same,Concentration (plasma),"[2]; time 3 min, animal 3",3.68 µM
same,Concentration (plasma),"[2]; time 15 min, animal 3",0.06 µM
same,Concentration (plasma),"[2]; time 30 min, animal 2",0.01 µM
same,Concentration (plasma),"[2]; time 30 min, animal 3",0 µM
same,level at time molar at 1 min,[2]; [6],7.92 µM
same,level at time molar at 1 min,[2]; [7],8.37 µM
same,level at time molar at 1 min,[2]; [8],10.8 µM
same,level at time molar at 0.05 h,"[2]; male, C57BL/6J, mouse, in vivo, iv, 1 mg/kg, Concentration (plasma), time 3 min, animal 1",3.74 µM
same,level at time molar at 0.05 h,"[2]; male, C57BL/6J, mouse, in vivo, iv, 1 mg/kg, Concentration (plasma), time 3 min, animal 2",3.5 µM
same,level at time molar at 5 min,[2]; [6],1.78 µM
same,level at time molar at 5 min,[2]; [7],2.61 µM
same,level at time molar at 5 min,[2]; [8],2.54 µM
same,level at time molar at 10 min,[2]; [6],0.36 µM
same,level at time molar at 10 min,[2]; [7],0.43 µM
same,level at time molar at 10 min,[2]; [8],0.38 µM
same,level at time molar at […],"[2]; male, C57BL/6J, mouse, in vivo, iv, 1 mg/kg, Concentration (plasma), time 15 min, animal 1",0.1 µM
same,level at time molar at […],"[2]; male, C57BL/6J, mouse, in vivo, iv, 1 mg/kg, Concentration (plasma), time 15 min, animal 2",0.06 µM
same,level at time molar at 0.5 h,"[2]; male, C57BL/6J, mouse, in vivo, iv, 1 mg/kg, Concentration (plasma), time 30 min, animal 1",0.01 µM
same,LogEC50 (best-fit value),mouse GLP-1 receptor [3],-9.62
same,"Potency (%), percentage of potency compare to GLP-1-G^2","mouse GLP-1 receptor [3]; cAMP production, from EC50",100%
same,EC50,mouse GLP-1 receptor [4],0.24 nM
same,Emax,mouse GLP-1 receptor [4]; read-out: Top (best-fit value),106%

# Reference: article PMC6389962 (Nature Communications, 2019)
